From the supplement of paper PMC11061612 come the findings set out here.

The subject of assay [1] is U-698-M. Kind of assay: combination Emax (second highest fraction inhibited in the dose matrix, 72 h); higher = more inhibition. To be noted: B-Cell Non-Hodgkin's Lymphoma, 7x7. A digest of the protocol:
(§1)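 Cell lines in DMEM/F12 or RPMI with 10% FBS were plated in 1536-well plates, held 24 hours at 37°C, 5% CO2, then given two-drug dose matrices for 72 hours (DMSO typically 0.2%). Viability was read by CellTiter-Glo 2.0 luminescence and scaled as inhibition from 0 (vehicle wells) to 1 (blank wells). Combination Emax is the second-highest inhibition in the matrix; Bliss excess is observed combination effect minus expected EA + EB − EA·EB, EA and EB being single-agent effects.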

In assay [2] the test system is U-698-M. Put plainly: Bliss excess, mean over the matrix (fraction); higher = more synergy. The conditions noted are these: U-[…], B-Cell Non-Hodgkin's Lymphoma, 7x7. A digest of the protocol:
as §1

Setting [3] is: first compound max 10 µM, partner max 10 µM.
Where [4] appears, read: first compound max 10 µM, partner max 0.3 µM.
The mark [5] stands for this setting: first compound max 10 µM, partner max 1 µM.
Where [6] appears, read: first compound max 10 µM, partner max 2 µM.
[7] abbreviates: first compound max 2 µM, partner max 1 µM.
Setting [8] is: first compound max 1 µM, partner max 10 µM.

Each structure is given as a SMILES string.
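Throughout, for Bliss excess, mean over the matrix: after 72 h of two-drug dosing.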

In the case of `C[C@@H](Nc1cc(F)cc(F)c1)c1cc(C(=O)N(C)C)cc2c(=O)cc(N3CCOCC3)oc12` [AZD8186] + CC(=O)c1c(C)c2cnc(Nc3ccc(N4CCNCC4)cn3)nc2n(C2CCCC2)c1=O [Palbociclib], the “combination Emax” value in the assay with U-698-M [1] (setting [3]) is 0.499. The Bliss excess in the assay on U-698-M [2] (setting [3]) was -0.0019.
For `NC1(C(=O)N[C@@H](CCO)c2ccc(Cl)cc2)CCN(c2ncnc3[nH]ccc23)CC1` [Capivasertib] + CC(=O)c1c(C)c2cnc(Nc3ccc(N4CCNCC4)cn3)nc2n(C2CCCC2)c1=O [Palbociclib], in that order: 0.532 and 0.0018.
As for `NC1(C(=O)N[C@@H](CCO)c2ccc(Cl)cc2)CCN(c2ncnc3[nH]ccc23)CC1` [Capivasertib] + CC(C)n1c(=O)n(C)c2cnc3cc(F)c(-c4ccc(OCCCN5CCCCC5)nc4)cc3c21 [AZD1390], the “combination Emax” value in the assay with U-698-M [1] (setting [4]) turned out to be 0.507. In addition, the Bliss excess with U-698-M [2] (setting [4]) is 0.0024.
For the compound `NC1(C(=O)N[C@@H](CCO)c2ccc(Cl)cc2)CCN(c2ncnc3[nH]ccc23)CC1` [Capivasertib] + CCN(CCO)CCCOc1ccc2c(Nc3cc(CC(=O)Nc4cccc(F)c4)[nH]n3)ncnc2c1 [AZD2811], the “combination Emax” value in the assay on U-698-M [1] (setting [5]) came to 0.5. Further, in the assay on U-698-M [2] (setting [5]), the Bliss excess was -0.0021.
Take `NC1(C(=O)N[C@@H](CCO)c2ccc(Cl)cc2)CCN(c2ncnc3[nH]ccc23)CC1` [Capivasertib] + COc1nnc2ccc(N3CCC(c4ccc(OCCN5CCN(C)C(=O)[C@H]5C)cc4)CC3)nn12 [AZD5153]: the “combination Emax” value in the assay on U-698-M [1] (setting [5]) turned out to be 0.768. Moreover, the Bliss excess with U-698-M [2] (setting [5]) is -0.0646.
As to `NC1(C(=O)N[C@@H](CCO)c2ccc(Cl)cc2)CCN(c2ncnc3[nH]ccc23)CC1` [Capivasertib] + C[C@@H]1COCCN1C2=NC(=NC(=C2)C3(CC3)[S@](=N)(=O)C)C4=C5C=CNC5=NC=C4 [AZD6738], in the assay with U-698-M [1] (setting [3]), the “combination Emax” value is 0.909. Besides, the Bliss excess in the assay on U-698-M [2] (setting [3]) is -0.0275.
Consider `NC1(C(=O)N[C@@H](CCO)c2ccc(Cl)cc2)CCN(c2ncnc3[nH]ccc23)CC1` [Capivasertib] + Cn1cnc2c(F)c(Nc3ccc(Br)cc3Cl)c(C(=O)NOCCO)cc21 [Selumetinib], for which the “combination Emax” value in the assay with U-698-M [1] (setting [3]) was 0.45. In the assay on U-698-M [2] (setting [3]), the Bliss excess was -0.0253.
As for `C[C@@H](Oc1cc(-c2cnn(C3CCNCC3)c2)cnc1N)c1c(Cl)ccc(F)c1Cl` [Crizotinib] + CC1=C(C(=CC=C1)Cl)NC(=O)C2=CN=C(S2)NC3=CC(=NC(=N3)C)N4CCN(CC4)CCO [Dasatinib], the “combination Emax” value with U-698-M [1] (setting [6]) was 0.861. In addition, the Bliss excess in the assay with U-698-M [2] (setting [6]) is -0.0005.
As for `C[C@@H](Oc1cc(-c2cnn(C3CCNCC3)c2)cnc1N)c1c(Cl)ccc(F)c1Cl` [Crizotinib] + Cn1cnc2c(F)c(Nc3ccc(Br)cc3Cl)c(C(=O)NOCCO)cc21 [Selumetinib], in the assay with U-698-M [1] (setting [3]), the “combination Emax” value is 0.752. Moreover, the Bliss excess in the assay on U-698-M [2] (setting [3]) was -0.0663.
Regarding `Cc1nc(Nc2ncc(C(=O)Nc3c(C)cccc3Cl)s2)cc(N2CCN(CCO)CC2)n1` [Dasatinib] + CC(=O)Nc1cccc(-n2c(=O)n(C3CC3)c(=O)c3c(Nc4ccc(I)cc4F)n(C)c(=O)c(C)c32)c1 [Trametinib], in the assay on U-698-M [1] (setting [7]), the “combination Emax” value worked out at 0.432. Moreover, the Bliss excess in the assay on U-698-M [2] (setting [7]) was -0.0131.
Consider `COc1cccc2c1C(=O)c1c(O)c3c(c(O)c1C2=O)C[C@@](O)(C(=O)CO)C[C@@H]3O[C@H]1C[C@H](N)[C@H](O)[C@H](C)O1` [Doxorubicin] + Cc1cc2ncnn2cc1Nc1ncc2c(n1)n(C1CCOCC1)c(=O)n2C [AZD7648], for which the “combination Emax” value in the assay with U-698-M [1] (setting [8]) was 0.909. For the same compound, the Bliss excess in the assay on U-698-M [2] (setting [8]) amounted to 0.084.
For `COc1cc2ncnc(Nc3ccc(F)c(Cl)c3)c2cc1OCCCN1CCOCC1` [Gefitinib] + CC(C)n1c(=O)n(C)c2cnc3cc(F)c(-c4ccc(OCCCN5CCCCC5)nc4)cc3c21 [AZD1390], the “combination Emax” value in the assay on U-698-M [1] (setting [4]) came out at 0.354. In the assay on U-698-M [2] (setting [4]), the Bliss excess is -0.0593.
For the compound `CS(=O)(=O)CCNCc1ccc(-c2ccc3ncnc(Nc4ccc(OCc5cccc(F)c5)c(Cl)c4)c3c2)o1` [Lapatinib] + C[C@@H](Oc1cc(-c2cnn(C3CCNCC3)c2)cnc1N)c1c(Cl)ccc(F)c1Cl [Crizotinib], the “combination Emax” value in the assay on U-698-M [1] (setting [3]) amounted to 0.934. For the same compound, in the assay on U-698-M [2] (setting [3]), the Bliss excess was -0.0653.
For the compound `CS(=O)(=O)CCNCc1ccc(-c2ccc3ncnc(Nc4ccc(OCc5cccc(F)c5)c(Cl)c4)c3c2)o1` [Lapatinib] + Cn1cnc2c(F)c(Nc3ccc(Br)cc3Cl)c(C(=O)NOCCO)cc21 [Selumetinib], the “combination Emax” value in the assay with U-698-M [1] (setting [3]) amounted to 0.585. Further, in the assay with U-698-M [2] (setting [3]), the Bliss excess was -0.0215.
As for `CS(=O)(=O)CCNCc1ccc(-c2ccc3ncnc(Nc4ccc(OCc5cccc(F)c5)c(Cl)c4)c3c2)o1` [Lapatinib] + NC1(c2ccc(-c3nc4ccn5c(=O)[nH]nc5c4cc3-c3ccccc3)cc2)CCC1 [MK-2206], in the assay with U-698-M [1] (setting [3]), the “combination Emax” value amounted to 0.905. Further, the Bliss excess in the assay with U-698-M [2] (setting [3]) was determined as 0.0097.
